# Assay results reported in patent US9957230B2, “Synergistic compositions” (Cadila Healthcare Limited, priority 2013, dated 2018).
# Where a name gives a salt, the structure may show the parent alone.
# Tests used:
# Type in all cases: in vivo
# db/db mice [1] = experiment: Antidiabetic activity in db/db mice (studies I and II): non-fasting serum glucose; details: Compound (Ia) 0.1 mg/kg; for Serum Glucose (mg/dl) Day 0: Day 0 (pretreatment); for Serum Glucose (mg/dl) Day 12: Day 12, non-fasting; for % Change Vs control: serum glucose day 12 vs vehicle control; for % Change Day 12 vs Day 0: serum glucose
# Source text: The in-vivo efficacy for antidiabetic activity was done for (I) and (II) individually with db/db mice of 13-14 weeks of age.
# 8. […] 8. The treatment was given oral gavages once daily for 14 days. […]
# [2] = tested on: high fat high cholesterol fed Syrian golden hamster; experiment: Lipid lowering effects with Rosuvastatin Calcium in HF-HC fructose diet Syrian golden hamsters (study III); details: Compound (Ia) 3 mg/kg
# Source text: The in-vivo efficacy was done in high fat high cholesterol fed Syrian golden hamster. It is an excellent model to investigate hepatic assembly and secretion of lipoprotein since its lipoprotein metabolism closely resembles that of humans as they have cholesteryl ester transfer protein (CETP) as like human. Feeding high fat high cholesterol diet to Syrian golden hamster causes hypercholesterolemia and hypertriglyceridemia which causes an increase in LDL levels and decrease in HDL-C/TC ratio.
# In this experiment, 21 Syrian golden hamsters which were kept on high fat-high cholesterol (HF-HC) fructose diet were divided into 3 treatment groups and one group was on normal diet control which was NIN (National Institute of Nutrition, NIN diet) control, the treatment given was as per Table no. 1. NIN control and HF-HC fructose diet vehicle control groups were treated with vehicle (10% Polyethylene glycol (PEG) 400+90% of 0.5% methyl cellulose) and other three groups with treatment mentioned in Table no. 13. The treatment was given oral gavages once daily for 7 days.
# Calculations of the % change in LDL-C levels, HDL-C and LDL-C/HDL-C ratio (Vs HF-HC fructose diet control) were performed using MS Excel.
# db/db mice [3] = experiment: Antidiabetic activity with Vildagliptin and Metformin in db/db mice (study IV): non-fasting serum glucose; details: Vildagliptin 1 mg/kg
# Source text: The in-vivo efficacy for antidiabetic activity was done female db/db mice of 10-15 weeks of age.
# (§1) 1. […] 17. The treatment was given oral gavages once daily for 14 days.
# (§2) The OGTT procedure followed is as given below—
# db/db mice [4] = experiment: Oral glucose tolerance test in db/db mice (study IV); details: Compound Ia 0.1 mg/kg, Vildagliptin 1 mg/kg, Metformin 100 mg/kg; for % improvement in AUC glucose vs control: Table 19 and text, OGTT after 14 days of treatment
# Source text: as §1, §2
# db/db mice [5] = experiment: Antidiabetic activity with Exenatide or Glimepiride in db/db mice (studies VII and VIII): non-fasting serum glucose; details: for Serum Glucose (mg/dl) Day 0: Day 0 (pretreatment), male and female db/db mice; for Serum Glucose (mg/dl) Day 6: Day 6, one hour after dose, non-fasting; for % Change Day 6 vs Day 0: serum glucose
# Source text: The in-vivo efficacy for antidiabetic activity was done in male and female db/db mice of 12-16 weeks of age. Generally obese and diabetic animals are insulin resistant and have abnormalities in glucose and lipid metabolism. The development of diabetes and beta cell dysfunction in these animal models closely parallels the pathophysiology of the disease condition in humans. […] They progressively develop into insulinopenia with age, a feature commonly observed in last stage of type-2 diabetes, when blood sugar levels are insufficiently controlled. Therefore, this genetic model proves to be suitable for predicting the likely therapeutic benefit of novel euglycemic agents in human type-2 diabetes.
# (§3) In this experiment, 49 db/db mice of 12-16 week were divided into 7 groups and as per their day 0 serum glucose levels. […] Detail treatments and routes of administrations were mentioned in Table no. 27. The treatment was given once daily for 7 days.
# (§4) The blood was collected by retro-orbital sinus puncture method under light ether anesthesia on day 0 (pretreatment) and on day 6 (one hour after dose administration) for non-fasting glucose analysis and oral glucose tolerance test (OGTT) was performed on day 7 of the treatment in fasting condition. After blood collection serum was separated and analyzed glucose analysis using Spectra max and commercial diagnostic kits. The OGTT procedure followed is as given below—
# (§5) The calculation for antidiabetic activity i.e. effect on serum glucose and improvement in glucose Area Under Curve (AUC) was calculated using the excel sheet and Graph Pad Prism software. The day-0 and day-6 glucose values of vehicle control and treatment were considered for calculating the effect on serum glucose. The effect on glucose AUC was calculated using the OGTT glucose levels at different time points and the improvement in glucose AUC were the reduction in glucose AUC after the treatment during OGTT.
# db/db mice [6] = experiment: Oral glucose tolerance test in db/db mice (studies VII and VIII); details: for AUC Glucose: OGTT day 7, fasting, glucose load 2 gm/kg
# Source text: as §3, §4
# Oral Glucose Tolerance Test (OGTT): One day before OGTT all animals were kept on overnight fasting and on the day of OGTT, day 7 of the treatment each animal was dosed with a single dose of vehicle/test compounds administered orally and 60-min post dosing blood was collected (0 min) and glucose load (2 gm/kg/10 ml) administered per orally. Blood was then collected at time points corresponding to 30, 60 and 120 min after glucose load administration. Serum was separated and analyzed for glucose using Spectra max and commercial diagnostic kits.
# as §5
# [7] = Table 9, female db/db mice, Sitagliptin 3 mg/kg p.o. once daily
# [8] = Table 9, Sitagliptin 3 mg/kg p.o. once daily
# [9] = Table 11, female db/db mice, Metformin 150 mg/kg p.o. once daily
# [10] = Table 11, Metformin 150 mg/kg p.o. once daily
# [11] = HF-HC fructose diet hamsters, 7 days, Rosuvastatin calcium 0.3 mg/kg
# [12] = Table 28, Compound Ia 0.1 mg/kg p.o., Exenatide 0.1 μg/kg i.p. once daily
# [13] = Table 30, Compound Ia 0.1 mg/kg, Glimepiride 2 mg/kg p.o. once daily
smiles,measurement,setting,value
"CCO[C@@H](Cc1ccc(OCCn2c(C)ccc2-c2ccc(SC)cc2)cc1)C(=O)O [Compound (Ia), Benzenepropanoic acid, α-ethoxy-4-[2-[2-methyl-5-[4-(methylthio)phenyl]-1H -pyrrol-1-yl]ethoxy]-, magnesium salt]",Serum Glucose (mg/dl) Day 0,db/db mice [1]; [7],407.8 ± 28.9 mg/dL
same,Serum Glucose (mg/dl) Day 12,db/db mice [1]; [7],276.9 ± 39.4 mg/dL
same,% Change Vs control,db/db mice [1]; [8],−32.8 ± 6.0%
same,% Change Day 12 vs Day 0,db/db mice [1]; [8],−33.0 ± 5.9%
same,Serum Glucose (mg/dl) Day 0,db/db mice [1]; [9],407.8 mg/dL
same,Serum Glucose (mg/dl) Day 12,db/db mice [1]; [9],276.9 mg/dL
same,% Change Vs control,db/db mice [1]; [10],−32.8%
same,% Change Day 12 vs Day 0,db/db mice [1]; [10],−33.0%
same,reduction in serum glucose,"db/db mice [1]; female db/db mice, Sitagliptin 3 mg/kg, Metformin 150 mg/kg",32.8%
same,reduction in LDL-C,[2]; [11],9.9%
same,"reduction in LDL-C/HDL-C ratio, atherogenic index",[2]; [11],4.9%
same,Serum LDL-C (mg/dl) Day 0,"[2]; Table 14, Day 0 (pretreatment), HF-HC fructose diet hamsters, Rosuvastatin calcium 0.3 mg/kg oral once daily 7 days",114.8 mg/dL
same,LDL-C % Change vs Day 0,"[2]; Table 14, Day 7, Rosuvastatin calcium 0.3 mg/kg",9.2%
same,Serum LDL-C (mg/dl) Day 7,"[2]; Table 14, Day 7, HF-HC fructose diet hamsters, Rosuvastatin calcium 0.3 mg/kg oral once daily 7 days",123.7 mg/dL
same,% Change vs HF-HC Fructose Control,"[2]; Table 14, LDL-C, Day 7, Rosuvastatin calcium 0.3 mg/kg",−9.9%
same,Serum HDL-C (mg/dl) Day 0,"[2]; Table 15, Day 0 (pretreatment), HF-HC fructose diet hamsters, Rosuvastatin calcium 0.3 mg/kg oral once daily 7 days",101.8 mg/dL
same,HDL-C % Change vs Day 0,"[2]; Table 15, Day 7, Rosuvastatin calcium 0.3 mg/kg",9.8%
same,Serum HDL-C (mg/dl) Day 7,"[2]; Table 15, Day 7, HF-HC fructose diet hamsters, Rosuvastatin calcium 0.3 mg/kg oral once daily 7 days",111.5 mg/dL
same,Serum LDL-C/HDL-C Ratio Day 0,"[2]; Table 16, Day 0 (pretreatment), HF-HC fructose diet hamsters, Rosuvastatin calcium 0.3 mg/kg",1.13
same,LDL/HDL % Change Vs Day 0,"[2]; Table 16, Day 7, Rosuvastatin calcium 0.3 mg/kg",−0.3%
same,Serum LDL-C/HDL-C Ratio Day 7,"[2]; Table 16, Day 7, HF-HC fructose diet hamsters, Rosuvastatin calcium 0.3 mg/kg",1.09
same,% Change vs HF-HC Fructose Control,"[2]; Table 16, LDL-C/HDL-C ratio, Day 7, Rosuvastatin calcium 0.3 mg/kg",−4.9%
same,Serum Glucose (mg/dl) Day 0,"db/db mice [3]; Table 18, Day 0 (pretreatment), female db/db mice, Compound Ia 0.1 mg/kg, Metformin 100 mg/kg p.o. once daily",375.4 mg/dL
same,Serum Glucose (mg/dl) Day 12,"db/db mice [3]; Table 18, Day 12, one hour after dose, non-fasting, Compound Ia 0.1 mg/kg, Metformin 100 mg/kg p.o. once daily",209.0 mg/dL
same,% Change Vs control,"db/db mice [3]; Table 18, serum glucose day 12 vs vehicle control, Compound Ia 0.1 mg/kg, Metformin 100 mg/kg",−34.3%
same,% Change Day 12 vs Day 0,"db/db mice [3]; Table 18, serum glucose, Compound Ia 0.1 mg/kg, Metformin 100 mg/kg",−43.8%
same,reduction in serum glucose,"db/db mice [3]; female db/db mice, Compound (Ia) 0.1 mg/kg, Metformin 100 mg/kg",34.3%
same,AUC Glucose,"db/db mice [4]; Table 19, OGTT day 14, fasting, glucose load 2 gm/kg",69613.3 mg·min/dL
same,% improvement in AUC glucose vs control,db/db mice [4],does no show any improvement
same,% improvement in AUC glucose vs control,db/db mice [4]; listed as Compound Ia,−12.0%
same,Serum Glucose (mg/dl) Day 0,db/db mice [5]; [12],420.6 mg/dL
same,Serum Glucose (mg/dl) Day 6,db/db mice [5]; [12],363.4 mg/dL
same,% Change Vs control,"db/db mice [5]; Table 28, serum glucose day 6 vs vehicle control (i.p. PBS or per oral vehicle), Compound Ia 0.1 mg/kg p.o., Exenatide 0.1 μg/kg i.p.",−24.8%
same,% Change Day 6 vs Day 0,"db/db mice [5]; Table 28, Compound Ia 0.1 mg/kg p.o., Exenatide 0.1 μg/kg i.p.",−13.4%
same,Serum Glucose (mg/dl) Day 0,db/db mice [5]; [13],420.6 mg/dL
same,Serum Glucose (mg/dl) Day 6,db/db mice [5]; [13],363.4 mg/dL
same,% Change Day 6 vs Day 0,"db/db mice [5]; Table 30, Compound Ia 0.1 mg/kg, Glimepiride 2 mg/kg p.o.",−13.4%
same,% Change Vs control,"db/db mice [5]; Table 30 and text, serum glucose day 6 vs vehicle control, Compound Ia 0.1 mg/kg, Glimepiride 2 mg/kg p.o.",−24.8%
same,reduction in serum glucose,"db/db mice [5]; db/db mice, day 6, Compound Ia 0.1 mg/kg p.o., Exenatide 0.1 μg/kg i.p.",24.8%
same,AUC Glucose,"db/db mice [6]; Table 29, Compound Ia 0.1 mg/kg p.o., Exenatide 0.1 μg/kg i.p.",46452.6 mg·min/dL
same,% improvement in AUC glucose vs control,"db/db mice [6]; Table 29 and text, OGTT day 7, Compound Ia 0.1 mg/kg p.o., Exenatide 0.1 μg/kg i.p.",23.7%
same,AUC Glucose,"db/db mice [6]; Table 31, Compound Ia 0.1 mg/kg, Glimepiride 2 mg/kg p.o.",46452.6 mg·min/dL
same,% improvement in AUC glucose vs control,"db/db mice [6]; Table 31 and text, OGTT after 7 days of treatment, Compound Ia 0.1 mg/kg, Glimepiride 2 mg/kg p.o.",23.7%
